# Experiments:
# Assay in all cases: biochemical
# Conditions in all cases: read-out: % inhibition mean (Z'Lyte)
# ABL1 G250E = ABL1 G250E (Homo sapiens, UniProt P00519, G250E)
# CAMK2B (CaMKII beta) = CAMK2B (CaMKII beta) (Homo sapiens, UniProt Q13554)
# CLK3 = CLK3 (Homo sapiens, UniProt P49761)
# CSF1R (FMS) = CSF1R (FMS) (Homo sapiens, UniProt P07333)
# CSNK1D (CK1 delta) = CSNK1D (CK1 delta) (Homo sapiens, UniProt P48730)
# EGFR (ErbB1) T790M L858R = EGFR (ErbB1) T790M L858R (Homo sapiens, UniProt P00533, L858R/T790M)
# EGFR (ErbB1) T790M L858R, sequence (P00533 whole entry T790M/L858R): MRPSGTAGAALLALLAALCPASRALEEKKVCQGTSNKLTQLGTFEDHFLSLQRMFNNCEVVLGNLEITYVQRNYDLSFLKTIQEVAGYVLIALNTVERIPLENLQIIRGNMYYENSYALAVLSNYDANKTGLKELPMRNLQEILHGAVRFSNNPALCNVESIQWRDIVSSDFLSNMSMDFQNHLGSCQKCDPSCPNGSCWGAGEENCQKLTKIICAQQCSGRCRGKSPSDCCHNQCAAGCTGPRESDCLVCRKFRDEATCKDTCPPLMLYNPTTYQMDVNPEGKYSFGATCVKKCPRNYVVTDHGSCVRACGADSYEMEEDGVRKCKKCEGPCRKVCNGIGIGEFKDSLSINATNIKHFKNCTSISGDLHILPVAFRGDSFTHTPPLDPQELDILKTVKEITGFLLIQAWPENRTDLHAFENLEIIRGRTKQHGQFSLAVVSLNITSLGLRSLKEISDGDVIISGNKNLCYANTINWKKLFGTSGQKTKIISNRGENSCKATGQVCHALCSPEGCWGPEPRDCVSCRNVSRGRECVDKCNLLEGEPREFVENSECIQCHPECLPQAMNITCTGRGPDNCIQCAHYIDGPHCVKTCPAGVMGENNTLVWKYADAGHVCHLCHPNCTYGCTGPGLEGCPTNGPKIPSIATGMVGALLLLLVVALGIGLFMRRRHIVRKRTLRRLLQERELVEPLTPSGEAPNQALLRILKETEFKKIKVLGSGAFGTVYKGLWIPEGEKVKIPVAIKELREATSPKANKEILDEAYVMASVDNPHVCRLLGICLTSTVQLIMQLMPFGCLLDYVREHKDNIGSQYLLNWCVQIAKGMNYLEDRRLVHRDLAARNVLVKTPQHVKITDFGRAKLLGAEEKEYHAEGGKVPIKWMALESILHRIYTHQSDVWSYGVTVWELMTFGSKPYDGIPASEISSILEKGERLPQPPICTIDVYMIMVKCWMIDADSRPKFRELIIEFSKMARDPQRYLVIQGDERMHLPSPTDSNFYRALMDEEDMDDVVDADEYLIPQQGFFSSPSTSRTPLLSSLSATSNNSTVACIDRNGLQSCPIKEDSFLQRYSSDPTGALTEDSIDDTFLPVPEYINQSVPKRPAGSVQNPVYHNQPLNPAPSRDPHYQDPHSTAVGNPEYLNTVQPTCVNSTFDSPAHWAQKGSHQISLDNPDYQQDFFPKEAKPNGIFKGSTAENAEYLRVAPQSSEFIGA
# EPHB4 = EPHB4 (Homo sapiens, UniProt P54760)
# FES (FPS) = FES (FPS) (Homo sapiens, UniProt P07332)
# FES (FPS), sequence (P07332 whole entry): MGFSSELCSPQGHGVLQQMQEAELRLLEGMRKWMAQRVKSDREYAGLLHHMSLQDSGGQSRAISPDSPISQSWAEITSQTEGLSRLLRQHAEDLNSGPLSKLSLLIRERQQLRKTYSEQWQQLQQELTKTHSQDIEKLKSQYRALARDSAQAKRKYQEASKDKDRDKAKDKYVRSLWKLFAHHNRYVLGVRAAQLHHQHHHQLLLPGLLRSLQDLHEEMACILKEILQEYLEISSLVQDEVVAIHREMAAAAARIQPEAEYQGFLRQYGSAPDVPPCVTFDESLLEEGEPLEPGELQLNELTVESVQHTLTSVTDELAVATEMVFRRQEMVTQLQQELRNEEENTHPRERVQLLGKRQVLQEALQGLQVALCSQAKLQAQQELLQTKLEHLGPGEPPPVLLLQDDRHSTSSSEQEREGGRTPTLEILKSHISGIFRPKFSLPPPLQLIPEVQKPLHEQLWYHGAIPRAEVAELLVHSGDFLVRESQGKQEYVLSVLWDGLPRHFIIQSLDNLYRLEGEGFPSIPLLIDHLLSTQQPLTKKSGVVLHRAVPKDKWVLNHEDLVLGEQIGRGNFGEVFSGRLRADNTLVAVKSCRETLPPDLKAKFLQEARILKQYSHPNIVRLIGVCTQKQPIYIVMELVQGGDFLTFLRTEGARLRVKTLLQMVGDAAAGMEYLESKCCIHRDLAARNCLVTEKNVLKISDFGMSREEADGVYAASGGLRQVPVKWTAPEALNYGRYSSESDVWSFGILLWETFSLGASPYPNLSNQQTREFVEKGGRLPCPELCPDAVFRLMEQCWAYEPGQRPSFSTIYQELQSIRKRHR
# FGFR3 = FGFR3 (Homo sapiens, UniProt P22607)
# FGFR3, sequence (P22607 whole entry): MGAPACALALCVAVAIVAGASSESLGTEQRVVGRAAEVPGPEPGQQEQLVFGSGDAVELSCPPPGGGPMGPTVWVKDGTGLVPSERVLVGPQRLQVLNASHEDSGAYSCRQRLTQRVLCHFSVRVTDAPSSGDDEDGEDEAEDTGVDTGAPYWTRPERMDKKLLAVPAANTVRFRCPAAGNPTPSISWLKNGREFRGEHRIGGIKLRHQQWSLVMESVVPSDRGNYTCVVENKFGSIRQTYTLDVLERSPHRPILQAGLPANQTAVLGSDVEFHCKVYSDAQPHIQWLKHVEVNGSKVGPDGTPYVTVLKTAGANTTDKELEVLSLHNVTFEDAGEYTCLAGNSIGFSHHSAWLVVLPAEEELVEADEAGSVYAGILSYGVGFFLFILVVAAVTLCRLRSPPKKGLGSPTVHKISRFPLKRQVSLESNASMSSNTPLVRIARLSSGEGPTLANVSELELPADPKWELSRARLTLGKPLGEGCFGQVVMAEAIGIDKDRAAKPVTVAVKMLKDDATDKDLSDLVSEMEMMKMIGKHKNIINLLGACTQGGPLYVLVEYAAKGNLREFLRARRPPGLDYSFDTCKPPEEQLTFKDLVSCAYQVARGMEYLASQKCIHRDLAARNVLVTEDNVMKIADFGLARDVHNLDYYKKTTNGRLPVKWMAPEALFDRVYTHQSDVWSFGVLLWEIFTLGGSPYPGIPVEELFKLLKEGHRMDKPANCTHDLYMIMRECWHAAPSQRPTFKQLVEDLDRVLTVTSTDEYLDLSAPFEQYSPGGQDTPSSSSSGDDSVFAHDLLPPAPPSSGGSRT
# FGFR3 K650E = FGFR3 K650E (Homo sapiens, UniProt P22607, K650E)
# FGFR3 K650E, sequence (P22607 whole entry K650E): as the sequence (P22607 whole entry) above, with K650E counted along it
# FGFR3 V555M = FGFR3 V555M (Homo sapiens, UniProt P22607, V555M)
# FGFR3 V555M, sequence (P22607 whole entry V555M): as the sequence (P22607 whole entry) above, with V555M counted along it
# FRAP1 (mTOR) = FRAP1 (mTOR) (Homo sapiens, UniProt P42345)
# GSK3B (GSK3 beta) = GSK3B (GSK3 beta) (Homo sapiens, UniProt P49841)
# ITK = ITK (Homo sapiens, UniProt Q08881)
# JAK2 JH1 JH2 V617F = JAK2 JH1 JH2 V617F (Homo sapiens, UniProt O60674, V617F)
# MAPK3 (ERK1) = MAPK3 (ERK1) (Homo sapiens, UniProt P27361)
# MINK1 = MINK1 (Homo sapiens, UniProt Q8N4C8)
# MYLK2 (skMLCK) = MYLK2 (skMLCK) (Homo sapiens, UniProt Q9H1R3)
# NTRK2 (TRKB) = NTRK2 (TRKB) (Homo sapiens, UniProt Q16620)
# PAK4 = PAK4 (Homo sapiens, UniProt O96013)
# PAK4, sequence (O96013 whole entry): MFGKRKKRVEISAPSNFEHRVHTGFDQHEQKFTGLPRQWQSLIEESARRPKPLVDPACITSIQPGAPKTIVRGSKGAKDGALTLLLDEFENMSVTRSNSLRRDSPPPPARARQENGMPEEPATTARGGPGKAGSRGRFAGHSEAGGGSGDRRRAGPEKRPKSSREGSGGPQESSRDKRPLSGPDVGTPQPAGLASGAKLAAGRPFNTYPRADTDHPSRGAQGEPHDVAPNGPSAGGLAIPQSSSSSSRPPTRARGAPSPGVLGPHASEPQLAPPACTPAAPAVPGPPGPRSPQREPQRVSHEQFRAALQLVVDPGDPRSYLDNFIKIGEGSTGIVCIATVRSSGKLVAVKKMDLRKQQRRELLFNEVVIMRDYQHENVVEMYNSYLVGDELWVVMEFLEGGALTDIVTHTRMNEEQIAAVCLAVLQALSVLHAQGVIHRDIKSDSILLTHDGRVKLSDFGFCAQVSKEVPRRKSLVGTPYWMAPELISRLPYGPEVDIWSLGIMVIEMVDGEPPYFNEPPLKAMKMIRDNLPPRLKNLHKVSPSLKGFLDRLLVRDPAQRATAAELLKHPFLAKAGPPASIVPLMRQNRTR
# PDGFRA D842V = PDGFRA D842V (Homo sapiens, UniProt P16234, D842V)
# PHKG1 = PHKG1 (Homo sapiens, UniProt Q16816)
# PRKCA (PKC alpha) = PRKCA (PKC alpha) (Homo sapiens, UniProt P17252)
# PRKCB2 (PKC beta II) = PRKCB2 (PKC beta II) (Homo sapiens, UniProt P05771)
# RPS6KA5 (MSK1) = RPS6KA5 (MSK1) (Homo sapiens, UniProt O75582)
# SRMS (Srm) = SRMS (Srm) (Homo sapiens, UniProt Q9H3Y6)
# STK23 (MSSK1) = STK23 (MSSK1) (Homo sapiens, UniProt Q9UPE1)
# STK23 (MSSK1), sequence (Q9UPE1 whole entry): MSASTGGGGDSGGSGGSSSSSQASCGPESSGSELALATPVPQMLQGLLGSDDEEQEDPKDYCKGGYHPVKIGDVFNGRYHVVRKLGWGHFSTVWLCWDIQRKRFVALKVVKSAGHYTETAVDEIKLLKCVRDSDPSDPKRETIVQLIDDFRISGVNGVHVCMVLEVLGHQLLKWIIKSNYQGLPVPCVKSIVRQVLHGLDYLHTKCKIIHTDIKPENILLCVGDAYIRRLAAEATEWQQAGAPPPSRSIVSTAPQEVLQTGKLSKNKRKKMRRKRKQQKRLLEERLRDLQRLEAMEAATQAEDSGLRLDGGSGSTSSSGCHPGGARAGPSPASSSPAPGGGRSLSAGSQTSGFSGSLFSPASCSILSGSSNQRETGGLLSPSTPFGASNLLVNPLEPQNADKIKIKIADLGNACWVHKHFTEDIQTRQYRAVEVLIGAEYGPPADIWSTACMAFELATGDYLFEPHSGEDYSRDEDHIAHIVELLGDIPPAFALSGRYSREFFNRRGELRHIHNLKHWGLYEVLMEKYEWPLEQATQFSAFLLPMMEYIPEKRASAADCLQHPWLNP
# STK4 (MST1) = STK4 (MST1) (Homo sapiens, UniProt Q13043)
# CSF1R (FMS), sequence (P07333 whole entry): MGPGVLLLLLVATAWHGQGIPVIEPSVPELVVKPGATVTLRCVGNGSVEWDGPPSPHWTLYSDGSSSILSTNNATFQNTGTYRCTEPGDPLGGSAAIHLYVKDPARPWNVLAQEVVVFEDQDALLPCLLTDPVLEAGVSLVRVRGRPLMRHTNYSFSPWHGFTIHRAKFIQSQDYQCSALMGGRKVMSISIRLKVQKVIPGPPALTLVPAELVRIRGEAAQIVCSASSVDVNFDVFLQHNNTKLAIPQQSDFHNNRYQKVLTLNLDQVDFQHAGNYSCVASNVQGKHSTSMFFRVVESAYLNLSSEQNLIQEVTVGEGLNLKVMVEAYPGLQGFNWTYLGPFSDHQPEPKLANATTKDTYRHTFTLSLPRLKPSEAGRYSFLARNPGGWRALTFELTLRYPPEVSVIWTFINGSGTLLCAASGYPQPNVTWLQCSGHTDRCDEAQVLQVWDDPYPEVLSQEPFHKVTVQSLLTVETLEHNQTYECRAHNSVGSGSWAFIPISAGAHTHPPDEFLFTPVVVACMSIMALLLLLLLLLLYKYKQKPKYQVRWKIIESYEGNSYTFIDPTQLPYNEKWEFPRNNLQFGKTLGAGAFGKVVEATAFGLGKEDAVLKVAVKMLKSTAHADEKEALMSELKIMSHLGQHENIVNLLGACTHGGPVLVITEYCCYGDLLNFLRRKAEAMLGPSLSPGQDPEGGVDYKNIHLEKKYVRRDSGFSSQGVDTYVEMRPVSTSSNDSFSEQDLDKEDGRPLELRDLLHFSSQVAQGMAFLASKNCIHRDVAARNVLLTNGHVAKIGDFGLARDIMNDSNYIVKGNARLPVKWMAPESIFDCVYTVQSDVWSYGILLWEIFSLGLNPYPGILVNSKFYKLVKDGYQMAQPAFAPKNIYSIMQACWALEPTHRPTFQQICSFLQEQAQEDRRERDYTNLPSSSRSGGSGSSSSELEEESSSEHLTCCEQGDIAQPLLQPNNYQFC
compound,measurement,setting,value
"COc1ccc2nc3cc(Cl)ccc3c(Nc3cc(CN4CCCC4)c(O)c(CN4CCCC4)c3)c2n1 [Pyronaridine, 4-[(7-Chloro-2-methoxybenzo[b][1,5]naphthyridin-10-yl)amino]-2,6-bis(1-pyrrolidinylmethyl)phenol phosphate (1:4)]",inhibition at 1 µM,ABL1 G250E,1%
same,inhibition at 1 µM,CAMK2B (CaMKII beta),1%
same,inhibition at 1 µM,CLK3,-3%
same,inhibition at 1 µM,CSF1R (FMS),-3%
same,inhibition at 1 µM,CSNK1D (CK1 delta),5%
same,inhibition at 1 µM,EGFR (ErbB1) T790M L858R,5%
same,inhibition at 1 µM,EPHB4,7%
same,inhibition at 1 µM,FES (FPS),-10%
same,inhibition at 1 µM,FGFR3,-2%
same,inhibition at 1 µM,FGFR3 K650E,-4%
same,inhibition at 1 µM,FGFR3 V555M,-1%
same,inhibition at 1 µM,FRAP1 (mTOR),1%
same,inhibition at 1 µM,GSK3B (GSK3 beta),8%
same,inhibition at 1 µM,ITK,2%
same,inhibition at 1 µM,JAK2 JH1 JH2 V617F,0%
same,inhibition at 1 µM,MAPK3 (ERK1),6%
same,inhibition at 1 µM,MINK1,7%
same,inhibition at 1 µM,MYLK2 (skMLCK),7%
same,inhibition at 1 µM,NTRK2 (TRKB),1%
same,inhibition at 1 µM,PAK4,3%
same,inhibition at 1 µM,PDGFRA D842V,-1%
same,inhibition at 1 µM,PHKG1,-1%
same,inhibition at 1 µM,PRKCA (PKC alpha),13%
same,inhibition at 1 µM,PRKCB2 (PKC beta II),15%
same,inhibition at 1 µM,RPS6KA5 (MSK1),2%
same,inhibition at 1 µM,SRMS (Srm),2%
same,inhibition at 1 µM,STK23 (MSSK1),-2%
same,inhibition at 1 µM,STK4 (MST1),-5%

# Reference: doi:10.1101/2021.09.30.462449v1 (biorxiv, 2021)
